In patent US5789444A, “Method of reducing glutamate neurotoxicity with anthranilic acid derivatives” (Washington University, priority 1996, dated 1998):
“Also recorded” adds a separate entry of the source.

Key:
[1] = tested on: NMDA-induced neurotoxicity, mouse cortical cultures; assay: NMDA-mediated excitotoxicity in mixed cortical cultures (neuronal injury by LDH release); type: cell-based
Experimental: (§1) Cell Culture: Mixed cortical cultures containing both neuronal and glial elements were prepared from fetal mice at 15 day gestation as previously described (Hewett et al., 1993). Glia were plated in Primaria (Falcon) 15 mm multiwell vessels in modified Eagle's medium (MEM, Earle's salts), with 2 mM glutamine, 25 mM glucose, 10% fetal bovine serum, 10% horse serum, and 10 ng/ml epidermal growth factor. Dissociated cortical cells were plated (2.75 hemispheres/10 ml/plate) in a similar medium (with only 5% fetal bovine serum and 5% horse serum) on an established bed of glia (15-30 days in vitro). All cultures were kept at 37° C. in a humidified 5% CO2 -containing atmosphere. After 3-7 days in vitro, glial cell division was halted by 2 days of exposure to 10 μM cytosine arabinoside. Cells were subsequently shifted into maintenance medium which was identical to the plating medium, but lacked fetal bovine serum. The medium was changed twice weekly. Experiments were performed on cortical cultures after 14 days in vitro.
Drug Exposure: Cells were exposed to NMDA for 5 min either alone or in the presence of test compound at room temperature in a HEPES controlled salt solution (HCSS), containing (mM): NaCl, 120; KCl, 5.4; MgCl2, 0.8; CaCl2, 1.8; HEPES, 20; glucose, 15, and glycine, 0.01 (pH 7.4). The exposure solution was then washed away and replaced by MEM (Earle's salts) supplemented with glycine (0.01 mM) and the cells returned to the incubator for 20-24 hr.
Since the neurotoxicity of NMDA preparations can vary from lot to lot, the concentration of NMDA used was determined empirically in a separate benchmarking test. Cells were exposed as described above to increasing concentrations of NMDA, and neuronal injury is assessed as described below. A dose/response curve is plotted, and a concentration which induces death in 50-70% of the neuronal population after 24 hours is used as the test concentration for evaluating compounds as neuroprotective drugs.
Assessment of Neuronal Cell Injury: Neuronal cell death was estimated by examination of cultures under phase-contrast microscopy, and quantified by measurement of lactate dehydrogenase (LDH) released by damaged or destroyed cells into the bathing medium one day following experimentation (Koh, J. Y. and Choi, D. W., 1987). The LDH signal corresponding to near-complete neuronal death was determined by assaying the supernatant of sister cultures which were exposed to 500 μM NMDA for 24 hr in MEM supplemented with 10 μM glycine. Background LDH levels (generally <15% of total neuronal) were determined in sister cultures subjected to sham wash and subtracted from the levels in experimental conditions to yield the LDH signal specific to experimental injury.
Mouse cortical cultures were exposed for 5 min to NMDA (100 μM) alone or in the presence of increasing concentrations of meclofenamate sodium, as described under Experimental Procedures, above. Values represent the mean LDH±SEM (n=5-7) scaled to the mean LDH found in control injury (=100).
Mouse cortical cultures were exposed, as described in Example 1, for 5 min to solutions containing increasing concentrations of NMDA or NMDA plus 300 μM meclofenamate. LDH activity was assessed 20-24 hr later. Data are expressed as the percentage of total LDH released (mean ±SEM; n=10). Total LDH was determined by assaying the supernatant of sister cultures which were incubated with 500 μM NMDA for 24 hr. An asterisk indicates difference form untreated controls as determined by repeated measures Analysis of Variance ("ANOVA") followed by Bonferroni's t-test for multiple comparisons (p<0.01).
Cells were exposed to NMDA (100-200 μM) (as described previously) both in the presence and absence of cyclooxygenase/lipooxygenase inhibitors. Data represents the mean LDH±SEM scaled to the mean LDH found in control injury (NMDA alone=100). Data were analyzed via ANOVA followed by Dunnett's t-test for multiple comparisons.

[2] = tested on: NMDA receptor; assay: Whole-cell recording of NMDA current in cortical neurons; type: cell-based, mouse
Experimental: Electrophysiological Recording: NMDA current was recorded at room temperature (25° C.) from DIV 12-20 cortical neurons plated on 35 mm dishes using whole-cell recording (EPC-7, List-Electronic, Germany) under voltage clamp. The data acquisition program, PULSE (HEKA Electronic, Germany), was used to control the voltage clamp, to monitor and to collect current and voltage data on a Macintosh computer (Quatra 950, Apple Computer Corp., USA). The extracellular solution contained (mM): NaCl, 145; KCl, 3; MnCl2, 2; CaCl2, 2; glycine, 0.01; HEPES, 10; TTX, 0.005 and glucose, 5. The recording electrode's internal solution contained (mM) CsCl, 150, ATP-Na, 2, BAPTA, 0.5 and HEPES, 10. All solutions were adjusted to pH 7.3 by Tris buffer. NMDA (100 μM) in the extracellular solution was delivered to the cell by a multi-channel DAD drug delivery system (Adams and List Inc., New York.) To eliminate dilution of drug, meclofenamate was added to the bath medium and NMDA was delivered in an extracellular solution containing the same concentration of drug.
Ten min prior to NMDA (100 μM) application, mouse cortical cells were treated with 300 μM meclofenamate. NMDA current was recorded using whole cell recording techniques. To eliminate dilution of drug, NMDA was delivered to the cell in a solution containing the same concentration of drug as that in the bath.

[3] = tested on: NMDA-induced 45Ca2+ influx; assay: 45Ca2+ accumulation during NMDA exposure in cortical cultures; type: cell-based, mouse; details: NMDA 300 μM, 5 min, increasing concentrations, n=18, FIG. 4
Experimental: ^45 Ca^2 + accumulation: Mouse cortical cultures were washed with HCSS and then exposed to NMDA (300 μM) alone or in the presence of increasing concentrations of meclofenamate in HCSS containing a trace amount of ^45 Ca^2+ (0.5 μCi/well; NEN, Boston, Mass.). After 5 min the exposure solution was washed out with four rinses of HCSS (750 μl each) and the cells were lysed by addition of 0.2% sodium dodecyl sulfate (SDS) at 37° C. An aliquot of cell lysate was estimated by β-counting.
Mouse cortical cultures were exposed, as in Example 1, for 5 min to NMDA (300 μM) alone or NMDA plus increasing concentrations of meclofenamate in the presence of extracellular ^45 Ca^2+. Values are expressed as mean ±SEM (n=18).

[4] = tested on: voltage-gated calcium channels; assay: KCl-stimulated influx of calcium (fura-2 fluorescence videomicroscopy); type: cell-based, mouse; details: meclofenamate 300 μM, 60 mM KCl, 5 min; FIG. 5
Experimental: as §1, with “The medium was changed twice weekly. Experiments were performed on cortical cultures after 14 days in vitro.” left out
Cytosolic Calcium Measurements: Intracellular free calcium was measured using fura-2 fluorescence videomicroscopy. […] Background fluorescence was measured from a cell free region of the coverslip at the end of each experiment and subtracted from each 340 and 380 image. […]
Cells were exposed for 5 minutes, as in Example 1, to 60 mM KCl in the presence and absence of meclofenamate (300 μM). Intracellular free calcium [Ca^2 +]i was measured using fura-2 fluorescence videomicroscopy.

[5] = tested on: focal cerebral ischemia, Long Evans male rats; assay: Induced focal cerebral ischemia (MCAO) with reperfusion, cortical infarct volume; type: in vivo, rat
Experimental: Surgical MCAO occlusion: Focal cerebral ischemia, confined to the cerebral cortex in the right middle cerebral artery territory (MCA) of Long Evans male rats (250-350 g; Charles Rivers, Wilmington, Del.), was induced by temporary ligation of the MCA and both common carotid arteries (CCAs) as described by Chen et al., 1986. The rectal temperature was monitored and maintained at 37.0°±0.5° C. via an electronic temperature controller (Versa-Therm 2156, Cole-Parmer, Chicago, Ill.) linked to a heating lamp. Physiological parameters including plasma blood glucose, arterial blood pressure, and pulse rate were monitored as described previously and maintained within normal range (Liu et al, 1989). Reperfusion was initiated by releasing arterial occlusion affecting all 3 vessels after 90 min of ischemia. Restoration of blood flow in all three arteries was observed directly under the microscope. Rats were treated i.p. with vehicle (control) or meclofenamate (10 mg/kg, i.p.) 15 min before ischemia.. The cortical infarct volume was morphometrically measured after triphenyl tetrazolium chloride stain 24 hr after MCAO.
31 rats underwent middle cerebral artery occlusion (MCAO) followed by reperfusion. Fourteen rats underwent MCAO alone while 17 rats were given intraperitoneal meclofenamate (10 mg/kg) 15 minutes prior to 90 min MCAO.

[6] = tested on: cyclooxygenase and lipoxygenase metabolites; assay: RIA measurements of lipid breakdown products following NMDA exposure; type: cell-based; details: data not shown
[7] = tested on: lipid catabolism; details: known; cited from earlier work
[8] = tested on: lipoxygenase/cyclooxygenase; details: conclusion of prior studies; cited from earlier work
[9] = Mus musculus, compound 300 μM, NMDA 100-200 μM, mean LDH±SEM, asterisk = significantly different from control, read-out: LDH, % of control (NMDA alone=100)

CCCCCCCCC#CCC#CCC#CCCCC(=O)O [ETI]
LDH, % of control (NMDA alone=100) ([1]; compound 300 μM, NMDA 100-200 μM, mean LDH±SEM, asterisk = significantly different from control): 107 ± 13.0%

CCCCCC#CCC#CCC#CCC#CCCCC(=O)O [ETYA]
activity at 300 µM [1, 9]: 85.1 ± 6.2%

O=c1ccc2cc(O)c(O)cc2o1 [Esculetin]
activity at 300 µM [1, 9]: 117 ± 17.1%

Cc1ccc(Cl)c(Nc2ccccc2C(=O)O)c1Cl [Meclofenamate]
activity at 300 µM [1, 9]: 10.8 ± 5.1%
neuronal injury (LDH release) ([1]; given at the same time as NMDA (100 μM, 5 min), increasing concentrations, FIG. 1): dose-dependently decreased neuronal injury
protective effect against NMDA receptor-mediated neurotoxicity ([1]; in vitro, summary in words, listed as meclofenamate sodium): powerful protective effect; also recorded: neuroprotective
neuroprotection over a full concentration-toxicity curve for NMDA ([1]; meclofenamate 300 μM, FIG. 2): Complete neuroprotection
NMDA current ([2]; 300 μM, 10 min prior to NMDA (100 μM), whole-cell, FIG. 3): failed to alter the current elicited by application of NMDA
NMDA receptor antagonism ([2]; electrophysiological and radiotracer flux measurements): not an NMDA receptor antagonist
NMDA-induced 45Ca2+ influx / uptake [3]: did not significantly affect uptake at any concentration tested
NMDA-induced 45Ca2+ influx / uptake ([3]; listed as meclofenamate): not significantly altered
elevation of intracellular calcium produced by KCl stimulation [4]: no effect on the elevation of intracellular calcium produced by KCl stimulation
cortical infarct volume ([5]; 10 mg/kg i.p. 15 min prior to 90 min MCAO, 24 hr, control 144.8±8.8, p<0.002): 99.2±9.2 mm^3
neuroprotection in animal model of cerebral ischemia ([5]; in vivo, summary in words): neuroprotective
formation of cyclooxygenase and lipoxygenase metabolites [6]: able to block formation of both cyclooxygenase and lipoxygenase metabolites
inhibition of lipid catabolism [7]: inhibitor of lipid catabolism
lipoxygenase/cyclooxygenase inhibition [8]: dual lipoxygenase/cyclooxygenase inhibitor

CC(Cc1ccc(O)c(O)c1)C(C)Cc1ccc(O)c(O)c1 (stereo not drawn) [NDGA]
activity at 30 µM ([1]; Mus musculus, compound 30 μM, NMDA 100-200 μM, mean LDH±SEM, read-out: LDH, % of control (NMDA alone=100)): 101 ± 11%

O=C1CCN(c2ccccc2)N1 [Phenidone]
activity at 300 µM [1, 9]: 58.1 ± 6.7%

CC(C)Cc1ccc(C(C)C(=O)O)cc1 (stereo not drawn) [ibuprofen]
activity at 100 µM ([1]; Mus musculus, compound 100 μM, NMDA 100-200 μM, mean LDH±SEM, asterisk = significantly different from control, read-out: LDH, % of control (NMDA alone=100)): 65.4 ± 3.5%

COc1ccc2cc([C@H](C)C(=O)O)ccc2c1 [naproxen]
activity at 300 µM [1, 9]: 82.5 ± 7.1%
